Values after ≈ are worked out from the molar mass of the structure shown.
Columns and labels:
Assay type in all cases: cell-based
[1] = test system: gram-positive bacteria, including tetracycline-resistant bacteria; test: Activity against gram-positive bacteria
Description: (§1) The following methodology was used to determine the minimum inhibitory concentration (hereinafter referred to as MIC) of the compounds of this invention. The test organisms were grown in 20 ml of Antibiotic Assay Broth (Difco) by inoculating the broth (in tubes) with a loopful of the organism from a BHI (Difco) agar slant. The inoculated tubes were incubated at 37° C. for 18 to 24 hours. These cultures are assumed to contain 10^9 colony forming units (CFU) per ml. The cultures were diluted 1:100 to give a final inoculum level of 10^7 CFU; dilutions were made with Yeast Beef Broth (Difco). The test compounds were dissolved in an appropriate diluent at a concentration of 1,000 μg/ml. Two-fold dilutions were made in Yeast Beef Broth (Difco) resulting in a range from 1000 μg/ml to 0.5 μg/ml. A 1.5 ml portion of each dilution was placed into individual petri dishes to which 13.5 ml of K-10 agar was added. The composition of K-10 agar is:
(§2) The final drug concentration in the agar ranged from 100 μg/ml to 0.05 μg/ml. Organism growth control plates containing agar only were prepared and inoculated before and after the test plates. The organisms were applied to agar surface of each plate with a Denly Multipoint Inoculator, which delivers approximately 10^4 CFU on the agar surface.
The plates were incubated at 37° C. for 18 hours and the MICs determined. […]

[2] = test system: Staphylococcus epidermidis SC9087; test: MIC (agar dilution, K-10 agar)
Description: as §1, §2
(§3) The plates were incubated at 37° C. for 18 hours and the MICs determined. The MIC is the lowest concentration of compound inhibiting growth of the organism.
(§4) The test organisms chosen for this study are pairs of tetracycline-sensitive and tetracycline-resistant strains.

[3] = test system: Streptococcus faecalis SC9776; test: MIC (agar dilution, K-10 agar)
Description: as §1, §2, §3, §4

[4] = test system: Staphylococcus epidermidis SC9052; test: MIC (agar dilution, K-10 agar)
Description: as §1, §2, §3, §4

[5] = test system: Streptococcus faecalis SC9011; test: MIC (agar dilution, K-10 agar)
Description: as §1, §2, §3, §4

[6] = test system: Staphylococcus aureus SGB 45; test: MIC (agar dilution, K-10 agar)
Description: as §1, §2, §3, §4

[7] = test system: Staphylococcus aureus SC2399; test: MIC (agar dilution, K-10 agar)
Description: as §1, §2, §3, §4

[8] = test system: Staphylococcus aureus SGB 42; test: MIC (agar dilution, K-10 agar)
Description: as §1, §2, §3, §4

[9] = test system: Staphylococcus aureus SC10016; test: MIC (agar dilution, K-10 agar)
Description: as §1, §2, §3, §4

[10] = Staphylococcus epidermidis SC9087, K-10 agar, approximately 10^4 CFU, 37° C., 18 hours
[11] = Streptococcus faecalis SC9776, K-10 agar, approximately 10^4 CFU, 37° C., 18 hours
[12] = Staphylococcus epidermidis SC9052, K-10 agar, approximately 10^4 CFU, 37° C., 18 hours
[13] = Streptococcus faecalis SC9011, K-10 agar, approximately 10^4 CFU, 37° C., 18 hours
[14] = Staphylococcus aureus SGB 45, K-10 agar, approximately 10^4 CFU, 37° C., 18 hours
[15] = Staphylococcus aureus SC2399, K-10 agar, approximately 10^4 CFU, 37° C., 18 hours
[16] = Staphylococcus aureus SGB 42, K-10 agar, approximately 10^4 CFU, 37° C., 18 hours
[17] = Staphylococcus aureus SC10016, K-10 agar, approximately 10^4 CFU, 37° C., 18 hours

| SMILES | activity against gram-positive bacteria [1] | MIC [2, 10] [µg/mL] | MIC [3, 11] [µg/mL] | MIC [4, 12] [µg/mL] | MIC [5, 13] [µg/mL] | MIC [6, 14] [µg/mL] | MIC [7, 15] [µg/mL] | MIC [8, 16] [µg/mL] | MIC [9, 17] [µg/mL] | MIC ([2]; Staphylococcus epidermidis, SC9087, 18 h) [µg/mL] | MIC ([3]; Enterococcus faecalis, SC9776, 18 h) [µg/mL] | MIC ([4]; Staphylococcus epidermidis, SC9052, 18 h) [µg/mL] | MIC ([5]; Enterococcus faecalis, SC9011, 18 h) [µg/mL] | MIC ([6]; Staphylococcus aureus, SGB45, 18 h) [µg/mL] | MIC ([7]; Staphylococcus aureus, SC2399, 18 h) [µg/mL] | MIC ([8]; Staphylococcus aureus, SGB42, 18 h) [µg/mL] | MIC ([9]; Staphylococcus aureus, SC10016, 18 h) [µg/mL] |
| --- | --- | --- | --- | --- | --- | --- | --- | --- | --- | --- | --- | --- | --- | --- | --- | --- | --- |
| COc1cc(O)c2c(c1Cl)C(C)(OC1CC(C)([N+](=O)[O-])C(OC)C(C)O1)C1CC3(O)C(N(C)C)C(=O)C(C(N)=O)=C(O)C3(O)C(=O)C1=C2O (centres unmarked) [Dactylocycline B] | active against gram-positive bacteria, including tetracycline-resistant bacteria | 3.1 (≈ 4.35 µM) | 6.3 (≈ 8.85 µM) | 3.1 (≈ 4.35 µM) | 6.3 (≈ 8.85 µM) | 3.1 (≈ 4.35 µM) | 6.3 (≈ 8.85 µM) | 3.1 (≈ 4.35 µM) | 3.1 (≈ 4.35 µM) |  |  |  |  |  |  |  |  |
| CN(C)[C@@H]1C(O)=C(C(N)=O)C(=O)[C@@]2(O)C(O)=C3C(=O)c4c(O)cccc4[C@@](C)(O)[C@H]3C[C@@H]12 [Tetracycline, reference compound] |  |  |  |  |  |  |  |  |  | 50 (≈ 113 µM) | > 100 | 0.8 (≈ 1.8 µM) | 1.6 (≈ 3.6 µM) | 100 (≈ 225 µM) | 0.4 (≈ 0.9 µM) | 0.2 (≈ 0.45 µM) | 100 (≈ 225 µM) |
| COc1cc(O)c2c(c1Cl)[C@](C)(O[C@H]1C[C@](C)(NO)[C@@H](OC)[C@H](C)O1)[C@H]1C[C@@]3(O)[C@H](N(C)C)C(=O)C(C(N)=O)=C(O)[C@@]3(O)C(=O)C1=C2O [Dactylocycline A] | active against gram-positive bacteria, including tetracycline-resistant bacteria | 3.1 (≈ 4.44 µM) | 25 (≈ 35.8 µM) | 6.3 (≈ 9.02 µM) | 25 (≈ 35.8 µM) | 3.1 (≈ 4.44 µM) | 1.6 (≈ 2.29 µM) | 1.6 (≈ 2.29 µM) | 6.3 (≈ 9.02 µM) |  |  |  |  |  |  |  |  |
